# Source: patent publication US6525001B1, “Substituted pyrimidine and pyridine herbicides” (Mid-American Commercialization Corporation, priority 1997, dated 2003)
# Experiments:
# Test in all cases: Test B pre-/postemergence
# Format in all cases: in vivo
# Parameters in all cases: key: 0 is no effect; 10 is complete control
# [1] = tested on: wild oat (Avena fatua)
# Method in brief: (§1)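 Response scores run from 0, meaning no effect, to 10, meaning complete control, assigned by eye relative to controls twelve to sixteen days after spraying. Treatment was both preemergence on planted seed and postemergence on plants at the 1- to 4-leaf stage.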
# [2] = tested on: corn (Zea mays); details: for Corn plant response rating: Preemergence
# Method in brief: as §1
# [3] = tested on: crabgrass (Digitaria sanguinalis); details: for Crabgrass plant response rating: Preemergence
# Method in brief: as §1
# [4] = tested on: blackgrass (Alopecurus myosuroides); details: for Blackgrass plant response rating: Preemergence
# Method in brief: as §1
# [5] = tested on: momingglory (Ipomoea hederacea)
# Method in brief: as §1
# [6] = tested on: wheat (Triticum aestivum)
# Method in brief: as §1
# [7] = tested on: purple nutsedge (Cyperus rotundus)
# Method in brief: as §1
# [8] = tested on: cocklebur (Xanthium strumarium); details: for Cocklebur plant response rating: Preemergence
# Method in brief: as §1
# [9] = tested on: sugar beet (Beta vulgaris)
# Method in brief: as §1
# [10] = tested on: broadleaf signalgrass (Brachiaria decumbens); details: for B. signalgrass plant response rating: Preemergence
# Method in brief: as §1
# [11] = tested on: giant foxtail (Setaria faberii)
# Method in brief: as §1
# [12] = tested on: pigweed (Amaranthus retroflexus)
# Method in brief: as §1
# [13] = tested on: velvetleaf (Abutilon theophrasti)
# Method in brief: as §1
# [14] = tested on: soybean (Glycine max)
# Method in brief: as §1
# [15] = Rate 250 g/ha, Postemergence (so in the source)
smiles,measurement,setting,value
Cc1cnc(-n2cnc(C(F)(F)F)n2)nc1Cc1cccc(C(F)(F)F)c1 [Compound 43],Wild oats plant response rating,"[1]; Rate 62 g/ha, Postemergence",4
same,Wild oats plant response rating,"[1]; Rate 62 g/ha, Preemergence",6
same,Wild oats plant response rating,"[1]; Rate 125 g/ha, Postemergence",5
same,"Plant response rating, Wild oats","[1]; Rate 125 g/ha, Preemergence",9
same,"Plant response rating, Wild oats","[1]; Rate 250 g/ha, Postemergence",6
same,"Plant response rating, Wild oats",[1]; [15],9
same,"Plant response rating, Corn","[2]; Rate 62 g/ha, Postemergence",3
same,Corn plant response rating,[2]; Rate 62 g/ha,1
same,"Plant response rating, Corn","[2]; Rate 125 g/ha, Postemergence",4
same,Corn plant response rating,[2]; Rate 125 g/ha,1
same,"Plant response rating, Corn","[2]; Rate 250 g/ha, Postemergence",5
same,"Plant response rating, Corn",[2]; [15],1
same,"Plant response rating, Crabgrass","[3]; Rate 62 g/ha, Postemergence",7
same,Crabgrass plant response rating,[3]; Rate 62 g/ha,8
same,"Plant response rating, Crabgrass","[3]; Rate 125 g/ha, Postemergence",8
same,Crabgrass plant response rating,[3]; Rate 125 g/ha,10
same,"Plant response rating, Crabgrass","[3]; Rate 250 g/ha, Postemergence",10
same,"Plant response rating, Crabgrass",[3]; [15],10
same,"Plant response rating, Blackgrass","[4]; Rate 62 g/ha, Postemergence",5
same,Blackgrass plant response rating,[4]; Rate 62 g/ha,2
same,"Plant response rating, Blackgrass","[4]; Rate 125 g/ha, Postemergence",6
same,Blackgrass plant response rating,[4]; Rate 125 g/ha,5
same,"Plant response rating, Blackgrass","[4]; Rate 250 g/ha, Postemergence",8
same,"Plant response rating, Blackgrass",[4]; [15],8
same,"Plant response rating, Morningglory","[5]; Rate 62 g/ha, Postemergence",9
same,Morningglory plant response rating,"[5]; Rate 62 g/ha, Preemergence",9
same,Morningglory plant response rating,"[5]; Rate 125 g/ha, Postemergence",9
same,Morningglory plant response rating,"[5]; Rate 125 g/ha, Preemergence",10
same,"Plant response rating, Morningglory","[5]; Rate 250 g/ha, Postemergence",10
same,"Plant response rating, Morningglory",[5]; [15],10
same,Wheat plant response rating,"[6]; Rate 62 g/ha, Postemergence",3
same,Wheat plant response rating,"[6]; Rate 62 g/ha, Preemergence",2
same,Wheat plant response rating,"[6]; Rate 125 g/ha, Postemergence",4
same,"Plant response rating, Wheat","[6]; Rate 125 g/ha, Preemergence",2
same,"Plant response rating, Wheat","[6]; Rate 250 g/ha, Postemergence",5
same,"Plant response rating, Wheat",[6]; [15],2
same,"Plant response rating, Nutsedge","[7]; Rate 62 g/ha, Postemergence",0
same,Nutsedge plant response rating,"[7]; Rate 62 g/ha, Preemergence",0
same,Nutsedge plant response rating,"[7]; Rate 125 g/ha, Postemergence",2
same,Nutsedge plant response rating,"[7]; Rate 125 g/ha, Preemergence",0
same,"Plant response rating, Nutsedge","[7]; Rate 250 g/ha, Postemergence",3
same,Cocklebur plant response rating,[8]; Rate 62 g/ha,1
same,"Plant response rating, Cocklebur","[8]; Rate 125 g/ha, Postemergence",7
same,Cocklebur plant response rating,[8]; Rate 125 g/ha,2
same,"Plant response rating, Cocklebur","[8]; Rate 250 g/ha, Postemergence",9
same,"Plant response rating, Cocklebur",[8]; [15],2
same,"Plant response rating, Sugarbeets","[9]; Rate 62 g/ha, Postemergence",10
same,Sugarbeets plant response rating,"[9]; Rate 62 g/ha, Preemergence",10
same,Sugarbeets plant response rating,"[9]; Rate 125 g/ha, Postemergence",10
same,"Plant response rating, Sugarbeets","[9]; Rate 125 g/ha, Preemergence",10
same,"Plant response rating, Sugarbeets","[9]; Rate 250 g/ha, Postemergence",10
same,"Plant response rating, Sugarbeets",[9]; [15],10
same,"Plant response rating, B. signalgrass","[10]; Rate 62 g/ha, Postemergence",4
same,B. signalgrass plant response rating,[10]; Rate 62 g/ha,5
same,"Plant response rating, B. signalgrass","[10]; Rate 125 g/ha, Postemergence",4
same,B. signalgrass plant response rating,[10]; Rate 125 g/ha,9
same,"Plant response rating, B. signalgrass","[10]; Rate 250 g/ha, Postemergence",6
same,"Plant response rating, B. signalgrass","[10]; Rate 250 g/ha, Postemergence as printed in head r139 (second section for compounds 26-50)",9
same,"Plant response rating, Giant foxtail","[11]; Rate 62 g/ha, Postemergence",8
same,Giant foxtail plant response rating,"[11]; Rate 62 g/ha, Preemergence",7
same,Giant foxtail plant response rating,"[11]; Rate 125 g/ha, Postemergence",9
same,Giant foxtail plant response rating,"[11]; Rate 125 g/ha, Preemergence",9
same,"Plant response rating, Giant foxtail","[11]; Rate 250 g/ha, Postemergence",9
same,"Plant response rating, Giant foxtail",[11]; [15],9
same,"Plant response rating, Redroot pigweed","[12]; Rate 62 g/ha, Postemergence",10
same,Redroot pigweed plant response rating,"[12]; Rate 62 g/ha, Preemergence",10
same,Redroot pigweed plant response rating,"[12]; Rate 125 g/ha, Postemergence",10
same,Redroot pigweed plant response rating,"[12]; Rate 125 g/ha, Preemergence",10
same,"Plant response rating, Redroot pigweed","[12]; Rate 250 g/ha, Postemergence",10
same,"Plant response rating, Redroot pigweed",[12]; [15],10
same,"Plant response rating, Velvetleaf","[13]; Rate 62 g/ha, Postemergence",8
same,Velvetleaf plant response rating,"[13]; Rate 62 g/ha, Preemergence",10
same,Velvetleaf plant response rating,"[13]; Rate 125 g/ha, Postemergence",9
same,"Plant response rating, Velvetleaf","[13]; Rate 125 g/ha, Preemergence",10
same,"Plant response rating, Velvetleaf","[13]; Rate 250 g/ha, Postemergence",9
same,"Plant response rating, Velvetleaf",[13]; [15],10
same,"Plant response rating, Soybean","[14]; Rate 62 g/ha, Postemergence",8
same,Soybean plant response rating,"[14]; Rate 62 g/ha, Preemergence",1
same,Soybean plant response rating,"[14]; Rate 125 g/ha, Postemergence",9
same,"Plant response rating, Soybean","[14]; Rate 125 g/ha, Preemergence",5
same,"Plant response rating, Soybean","[14]; Rate 250 g/ha, Postemergence",9
same,"Plant response rating, Soybean",[14]; [15],7
